# Test results: EP1260232A1, “REMEDIES FOR MALIGNANT TUMOR-CONCOMITANT NEUROSIS AND AZOOR OR ANALOGOUS DISEASES THEREOF” (priority 2000, dated 2001)
# Columns and labels:
# [1] = Clinical case: therapeutic effect on AZOOR, static visual field examination (Humphrey visual field analyzer); type: in vivo; conditions: one AZOOR patient
# Text: Case: History of the present illness: The patient became aware of dark and blurred vision in the center of their visual field on September 1, 1999, and visited Ohyachi Kyoritsu Eye Clinic on September 4 in the same year.. […] ERG was subnormal and normal for the right and left eyes, respectively. […] FAG detected mild leakage of fluorescein from the optic disc of the right eye. In view of these observations, optic nerve disorder was suspected and the patient was made to visit a brain surgeon in the neighborhood to receive CT and MRT examinations. However, no abnormality was found. […] To treat the eye symptom, the clinic prescribed oral medications such as drug for ameliorating circulation for a while, but no improvement of visual field was observed. Thus, on October 1, 1999, the patient was referred to the Department of ophthalmology at Sapporo Medical University, School of Medicine for close examination. Results of the first examination: Visual acuity was Vd=1.2 and Vs=1.2. Although pupils were round and equal in size, the right eye was RAPD(+) but no oculomotor abnormalities were observed. […] In the static visual field examination, reduction of the sensitivity in the central visual field was observed. Course of disease: Oral administration of prednisolone (40mg/day) was started on October 1, 1999. […]
# apoptosis caused by CAR = test: Therapeutic effect on cancer-associated neuropathy: ERG in rats after intravitreal anti-recoverin and anti-hsp70 antibodies; type: in vivo; conditions: Lewis rats, light for 24 hours; nilvadipine 3.2 mg/kg/day peritoneal for two weeks with antibody infusion into vitreous body; follow-up five weeks; compared with predonine 0.6 µg/kg/day i.m. and cyclosporine A 10 mg/kg/day i.m.; Fig. 1
# Procedure: Test animal: Lewis rats (8 weeks of age) Treatment group 5 animals (10 eyes) Control group 5 animals (10 eyes) Photoenvironment: Apoptosis (cell death) was induced under light for 24 hours. Test drugs: Nilvadipine (3.2 mg/kg/day) by peritoneal administration (dissolving solution) polyethylene glycol 400: ethanol: water = 1:1:2 Predonine (0.6 µg/kg/day) by intramuscular injection (dissolving solution) PBS (phosphate buffer solution) Cyclosporine A (10 mg/kg/day) by intramuscular injection (dissolving solution) olive oil Antibodies: anti-recoverin antibody (5 µl/eye) anti-hsp70 antibody (5 µl/eye) Administration method: Test drugs were administered for two weeks along with infusion of antibodies into vitreous body of the eye. Follow-up observation was performed for five weeks after the start of administration. PBS alone was administered to the control group.
# In Fig. 1, the vertical axis represents ERG (electroretinogram) amplitude, and the horizontal axis is the lapse of time in weeks. Δ: nilvadipine group; □: predonine group; ◇: cyclosporin A group; and ○: control group.
SMILES,"visual field ([1]; oral prednisolone 40 mg/day reduced stepwise to 10 mg/day, October-November 1999, Figs. 2 and 3)",ERG (electroretinogram) amplitude (apoptosis caused by CAR),"static visual field examination / visual sensitivity ([1]; two months after start of oral nilvadipine, following 0.3 ml Depo-Medrol sub-Tenon's injection to both eyes, Figs. 4 and 5)"
C[C@]12C=CC(=O)C=C1CC[C@@H]1[C@@H]2[C@@H](O)C[C@@]2(C)[C@H]1CC[C@]2(O)C(=O)CO [prednisolone],could not improve the visual field,,
"COC(=O)C1=C(C#N)NC(C)=C(C(=O)OC(C)C)C1c1cccc([N+](=O)[O-])c1 (stereo not drawn) [nilvadipine, isopropyl 6-cyano-5-methoxycarbonyl-2-methyl-4-(3-nitrophenyl)-1,4-di hydropyridine-3-carboxylate ester]",,more effective than predonine and cyclosporin A,remarkable improvement of visual sensitivity
